{
  "source": "paper PMC12384813",
  "key": {"[1]": {"experiment": "Stability by mass spectrometry at physiological pH", "type": "physicochemical", "details": "pH 7.0, over 72 h"}, "[2]": {"experiment": "Solubility in aqueous media", "type": "physicochemical", "details": "needs 10% DMSO in saline to fully dissolve"}, "[3]": {"system": "SVG p12 normal glial cells", "experiment": "cells", "details": "Homo sapiens"}, "U87 MG cells [4]": {"system": "U87 MG cells", "experiment": "cells", "type": "cell-based, human", "procedure": "In this procedure, U87 MG (2 × 10^4 cells per well) were seeded in BD falcon transparent 96-well plates and incubated for 24 h."}, "[5]": {"system": "SVG p12 normal glial cells"}, "U87 MG cells [6]": {"system": "U87 MG cells", "experiment": "Cellular uptake of ^64Cu-NOTA conjugates", "type": "cell-based, human", "details": "Table S1", "procedure": "(§1) U87 MG (1 × 10^5 per well) were seeded in corning 24-well plates and cultured in DMEM with 10% FBS at 37 °C. […] For uptake assay, cells were washed with PBS to collect surface-bound and internalized activity, and for internalization assay, glycine-HCl wash was performed to remove surface bound activity. Moreover, cells were harvested, counted, and radioactivity was measured using a gamma counter. Results were expressed as percentage of total activity (%) in counts per min (CPM)/10^6 cells. For efflux studies, U87 MG cells were incubated with the complexes for 1 h, then washed with PBS, and replaced with fresh medium. The retained activity was measured over 0 to 24 h after washing."}, "U87 MG cells [7]": {"system": "U87 MG cells", "experiment": "Internalization of ^64Cu-NOTA conjugates (glycine-HCl wash)", "type": "cell-based, human", "details": "Table S2", "procedure": "as §1"}, "SVG p12 cells [8]": {"system": "SVG p12 cells", "experiment": "Cellular uptake of ^64Cu-NOTA conjugates", "type": "cell-based, human", "details": "Table S1"}, "U87 MG cells [9]": {"system": "U87 MG cells", "experiment": "Efflux kinetics of ^64Cu-NOTA conjugates", "type": "cell-based, human", "details": "Table S3", "procedure": "as §1"}, "SVG p12 cells [10]": {"system": "SVG p12 cells", "experiment": "Internalization of ^64Cu-NOTA conjugates (glycine-HCl wash)", "type": "cell-based, human", "details": "Table S2"}, "SVG p12 cells [11]": {"system": "SVG p12 cells", "experiment": "Efflux kinetics of ^64Cu-NOTA conjugates", "type": "cell-based, human", "details": "Table S3"}, "[12]": {"details": "0.5 h after 1 h incubation and wash"}},
  "note": "Like-named read-outs stand apart in the source and are kept apart here.",
  "data": [
    {"smiles": "N=C(N)NCCC[C@@H]1NC(=O)[C@H](CCCCNC(=O)[C@H](CCCCNC(=O)c2cc(-c3ccccn3)nc(-c3ccccn3)c2)NC(=O)COCCOCCNC(=O)CN2CCN(CC(=O)O)CCN(CC(=O)O)CC2)NC(=O)[C@@H](Cc2ccccc2)NC(=O)[C@H](CC(=O)O)NC(=O)CNC1=O", "note": "[^natCu-NOTA-TP-c(RGDfK), metal not drawn]", "values": [
      {"measurement": "release of copper or platinum (mass spectrometry)", "setting": "[1]", "result": "no detectable release of copper or platinum"},
      {"measurement": "solubility in aqueous media", "setting": "[2]", "result": "limited solubility in aqueous media"}
    ]},
    {"smiles": "Cn1nnc2c(C(N)=O)ncn2c1=O", "note": "[Temozolomide]", "values": [
      {"measurement": "EC50", "setting": "[3]; SVGp12, 24 h, read-out: EC50 24 h SVG p12", "result": "80 ± 10", "unit": "µM"},
      {"measurement": "EC50", "setting": "[3]; SVGp12, 48 h, read-out: EC50 48 h SVG p12", "result": "76 ± 7", "unit": "µM"},
      {"measurement": "EC50", "setting": "U87 MG cells [4]; Homo sapiens, U-87 MG, 24 h, U87 MG, read-out: EC50 24 h U87 MG", "result": "800 ± 11", "unit": "µM"},
      {"measurement": "EC50", "setting": "U87 MG cells [4]; Homo sapiens, U-87 MG, 48 h, U87 MG, read-out: EC50 48 h U87 MG", "result": "580 ± 8", "unit": "µM"},
      {"measurement": "EC50", "setting": "U87 MG cells [4]; Homo sapiens, U-87 MG, 72 h, U87 MG, read-out: EC50 72 h U87 MG", "result": "575 ± 6", "unit": "µM"},
      {"measurement": "EC50", "setting": "[5]", "result": "72 ± 5", "unit": "µM"}
    ]},
    {"smiles": "N=C(N)NCCC[C@@H]1NC(=O)[C@H](CCCCNC(=O)CNC(=O)COCCOCCNC(=O)CN2CCN(CC(=O)O)CCN(CC(=O)O)CC2)NC(=O)[C@@H](Cc2ccccc2)NC(=O)[C@H](CC(=O)O)NC(=O)CNC1=O", "note": "[[^64Cu]Cu-NOTA-c(RGDfK), metal not drawn]", "values": [
      {"measurement": "Uptake 1h U87 MG", "setting": "U87 MG cells [6]; 1 h, 37 °C", "result": "2.50 ±1.00 % total activity (CPM) /106 cells"},
      {"measurement": "Uptake 2h U87 MG", "setting": "U87 MG cells [6]; 2 h", "result": "3.23 ±0.61 % total activity (CPM) /106 cells"},
      {"measurement": "Uptake 4h U87 MG", "setting": "U87 MG cells [6]; 4 h", "result": "6.08 ± 0.60 % total activity (CPM) /106 cells"},
      {"measurement": "Uptake 24h U87 MG", "setting": "U87 MG cells [6]; 24 h", "result": "14.11 ± 0.95 % total activity (CPM) /106 cells"},
      {"measurement": "Uptake 48h U87 MG", "setting": "U87 MG cells [6]; 48 h", "result": "18.95 ± 0.45 % total activity (CPM) /106 cells"},
      {"measurement": "EC50", "setting": "U87 MG cells [4]; 24 h", "result": "0.025 ± 0.007", "unit": "µM"},
      {"measurement": "EC50", "setting": "U87 MG cells [4]; 48 h", "result": "0.032 ± 0.009", "unit": "µM"},
      {"measurement": "EC50", "setting": "U87 MG cells [4]; 72 h", "result": "0.045 ± 0.002", "unit": "µM"},
      {"measurement": "Internalized activity 1h U87 MG", "setting": "U87 MG cells [7]; 1 h", "result": "3.13 ± 0.31 % total activity (CPM) /106 cells"},
      {"measurement": "Internalized activity 2h U87 MG", "setting": "U87 MG cells [7]; 2 h", "result": "3.28 ± 0.26 % total activity (CPM) /106 cells"},
      {"measurement": "Internalized activity 4h U87 MG", "setting": "U87 MG cells [7]; 4 h", "result": "5.00 ± 0.58 % total activity (CPM) /106 cells"},
      {"measurement": "Internalized activity 24h U87 MG", "setting": "U87 MG cells [7]; 24 h", "result": "11.44 ± 0.62 % total activity (CPM) /106 cells"},
      {"measurement": "Internalized activity 48h U87 MG", "setting": "U87 MG cells [7]; 48 h", "result": "15.08 ± 0.38 % total activity (CPM) /106 cells"},
      {"measurement": "EC50", "setting": "[5]", "result": "0.118 ± 0.008", "unit": "µM"},
      {"measurement": "EC50", "setting": "[5]; 24 h", "result": "> 0.3", "unit": "µM"},
      {"measurement": "EC50", "setting": "[5]; 48 h", "result": "> 0.2", "unit": "µM"},
      {"measurement": "Uptake 1h SVG p12", "setting": "SVG p12 cells [8]; 1 h", "result": "2.67 ± 0.20 % total activity (CPM) /106 cells"},
      {"measurement": "Uptake 2h SVG p12", "setting": "SVG p12 cells [8]; 2 h", "result": "4.02 ± 0.41 % total activity (CPM) /106 cells"},
      {"measurement": "Uptake 4h SVG p12", "setting": "SVG p12 cells [8]; 4 h", "result": "5.36 ± 0.94 % total activity (CPM) /106 cells"},
      {"measurement": "Uptake 24h SVG p12", "setting": "SVG p12 cells [8]; 24 h", "result": "7.90 ± 0.41 % total activity (CPM) /106 cells"},
      {"measurement": "Uptake 48h SVG p12", "setting": "SVG p12 cells [8]; 48 h", "result": "7.30 ± 0.44 % total activity (CPM) /106 cells"},
      {"measurement": "Efflux (retained activity) 0.5h U87 MG", "setting": "U87 MG cells [9]; [12]", "result": "89.28 ± 6.24 % total activity (CPM) /106 cells"},
      {"measurement": "Efflux (retained activity) 1h U87 MG", "setting": "U87 MG cells [9]; 1 h after wash", "result": "85.47 ± 3.64 % total activity (CPM) /106 cells"},
      {"measurement": "Efflux (retained activity) 2h U87 MG", "setting": "U87 MG cells [9]; 2 h after wash", "result": "84.08 ± 7.95 % total activity (CPM) /106 cells"},
      {"measurement": "Efflux (retained activity) 4h U87 MG", "setting": "U87 MG cells [9]; 4 h after wash", "result": "80.93 ± 6.97 % total activity (CPM) /106 cells"},
      {"measurement": "Efflux (retained activity) 24h U87 MG", "setting": "U87 MG cells [9]; 24 h after wash", "result": "67.59 ± 2.23 % total activity (CPM) /106 cells"},
      {"measurement": "Internalized activity 1h SVG p12", "setting": "SVG p12 cells [10]; 1 h", "result": "1.72 ±0.14 % total activity (CPM) /106 cells"},
      {"measurement": "Internalized activity 2h SVG p12", "setting": "SVG p12 cells [10]; 2 h", "result": "1.90 ± 0.14 % total activity (CPM) /106 cells"},
      {"measurement": "Internalized activity 4h SVG p12", "setting": "SVG p12 cells [10]; 4 h", "result": "3.05 ±0.48 % total activity (CPM) /106 cells"},
      {"measurement": "Internalized activity 24h SVG p12", "setting": "SVG p12 cells [10]; 24 h", "result": "6.80 ± 0.32 % total activity (CPM) /106 cells"},
      {"measurement": "Internalized activity 48h SVG p12", "setting": "SVG p12 cells [10]; 48 h", "result": "5.98 ± 0.36 % total activity (CPM) /106 cells"},
      {"measurement": "Efflux (retained activity) 0.5h SVG p12", "setting": "SVG p12 cells [11]; [12]", "result": "94.55 ± 7.92 % total activity (CPM) /106 cells"},
      {"measurement": "Efflux (retained activity) 1h SVG p12", "setting": "SVG p12 cells [11]; 1 h after wash", "result": "88.05 ± 6.90 % total activity (CPM) /106 cells"},
      {"measurement": "Efflux (retained activity) 2h SVG p12", "setting": "SVG p12 cells [11]; 2 h after wash", "result": "83.93 ± 6.98 % total activity (CPM) /106 cells"},
      {"measurement": "Efflux (retained activity) 4h SVG p12", "setting": "SVG p12 cells [11]; 4 h after wash", "result": "73.44 ± 3.92 % total activity (CPM) /106 cells"},
      {"measurement": "Efflux (retained activity) 24h SVG p12", "setting": "SVG p12 cells [11]; 24 h after wash", "result": "17.62 ± 1.81 % total activity (CPM) /106 cells"}
    ]}
  ]
}
